# Where two headings read alike, the source gives them in different places. Numbered stars: 1 amine (or outer) side, 2 acyl side, 3 side chain; on linkers, the order of the positions; unused ones are H or OH. Bridge positions count the residues as written; N and C are the ends. Square brackets hold non-standard residues; d marks the D form. Peptide text beside a SMILES is read from it. * marks the point of attachment. C20 diacid = O=C(O)CCCCCCCCCCCCCCCCCCC(=O)*; Pro(4R-NH2) = N[C@H]1CN[C@H](C(=O)O)C1; γGlu = O=C(O)[C@H](CCC(=O)[*:2])N[*:1]; Hyp = O=C(O)[C@@H]1C[C@@H](O)CN1; NMeI = CC[C@H](C)[C@H](NC)C(=O)O; Aze = O=C(O)[C@@H]1CCN1; Sar = CNCC(=O)O
# Tests used:
# [1] = Solubility assessment (turbidity absorbance at 325 nm); format: physicochemical; settings: stock 2 mg/ml diluted 1:1, ambient temperature (typically 25°C), n=1; for Solubility, Acetate buffer pH 4: 100 mM acetate buffer pH 4.0; for Solubility, Acetate buffer pH 5: 100 mM acetate buffer pH 5.0; for Solubility, Histidine buffer pH 6: 100 mM histidine buffer pH 6.0; for Solubility, Histidine buffer pH 7: 100 mM histidine buffer pH 7.0; for Solubility, Phosphate buffer pH 6: 100 mM phosphate buffer pH 6.0; for Solubility, Phosphate buffer pH 7: 100 mM phosphate buffer pH 7.0; for Solubility, Phosphate buffer pH 7.5: 100 mM phosphate buffer pH7.5
# How it was run: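 Turbidity read as absorbance at 325 nm (also 280 nm), single samples at ambient temperature (typically 25°C); ≤ 0.02 units counts as ≥ 1 mg/ml soluble. Samples made by 1:1 dilution of a 2 mg/ml acidic stock into 100 mM acetate, histidine or phosphate buffers, pH 4.0–7.5.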
# Sprague Dawley (SD) rats = test: Acute food intake and body weight in normal Sprague Dawley rats; format: in vivo; settings: vehicle-corrected, dose 30 nmol/kg sc, once; for Body weight loss (%) after 96 hours: mean ± SEM, n = 8
# How it was run: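 Normal male-unspecified SD rats, n = 8 per group, given a single s.c. peptide dose of 30 nmol/kg just before dark phase, with vehicle and positive control groups. Food intake recorded at 0, 4, 7, 10, 24, 48, 72 and 96 h; body weight daily; means ± SEM.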
# [2] = target: T1, human calcitonin receptor (hCTR2) (Homo sapiens, UniProt P30988); test: hCTR2 assay: induction of cAMP (AlphaScreen cAMP Assay kit) in COS7 cells expressing hCTR2; format: cell-based
# T1 construct: expressed in transfected cells
# T1 sequence (P30988 25-474): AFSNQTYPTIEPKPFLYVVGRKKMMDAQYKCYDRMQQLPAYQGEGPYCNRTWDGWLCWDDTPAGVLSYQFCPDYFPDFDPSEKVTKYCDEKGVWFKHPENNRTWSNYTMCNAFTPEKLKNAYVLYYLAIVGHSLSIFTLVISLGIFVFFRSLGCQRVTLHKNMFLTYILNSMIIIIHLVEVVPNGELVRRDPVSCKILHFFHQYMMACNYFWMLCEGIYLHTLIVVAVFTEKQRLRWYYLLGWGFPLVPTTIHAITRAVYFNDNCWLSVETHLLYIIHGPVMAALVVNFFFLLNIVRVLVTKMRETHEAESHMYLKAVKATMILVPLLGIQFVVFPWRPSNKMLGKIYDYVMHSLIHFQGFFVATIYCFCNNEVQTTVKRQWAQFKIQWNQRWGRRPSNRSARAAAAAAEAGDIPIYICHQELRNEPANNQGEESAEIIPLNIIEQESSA
# How it was run: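 cAMP read-out by AlphaScreen after cell lysis; EC50 and % efficacy vs pramlintide from 4-parameter logistic fitting. Agonist stimulation: hCTR2-COS7 stable cells, 15 min, 37° C, 100 µM IBMX, 0.1% casein, Tyrode/HEPES pH 7.4.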
structure (smiles),measurement,setting,value
"CC[C@H](C)[C@@H](C(=O)N[C@@H](CC(C)C)C(=O)N[C@@H](CO)C(=O)N[C@@H](CO)C(=O)N[C@H](C(=O)N[C@@H](CC(N)=O)C(=O)N[C@H](C(=O)NCC(=O)N[C@@H](CO)C(=O)N[C@@H](CC(N)=O)C(=O)N[C@H](C(=O)N1C[C@H](O)C[C@H]1C(N)=O)[C@@H](C)O)C(C)C)[C@@H](C)O)N(C)C(=O)[C@H](C)NC(=O)CN(C)C(=O)[C@H](Cc1ccccc1)NC(=O)[C@H](CC(N)=O)NC(=O)[C@H](CC(N)=O)NC(=O)[C@H](CO)NC(=O)[C@H](CO)NC(=O)[C@H](CCCNC(=N)N)NC(=O)[C@H](Cc1c[nH]cn1)NC(=O)[C@H](CC(C)C)NC(=O)[C@H](Cc1ccccc1)NC(=O)[C@H](CCC(=O)O)NC(=O)[C@H](C)NC(=O)[C@H](CC(C)C)NC(=O)[C@H](CCCNC(=N)N)NC(=O)[C@H](CCC(N)=O)NC(=O)[C@@H](NC(=O)[C@H](C)NC(=O)[C@@H]1CSSC[C@H](NC(=O)[C@H](CCCNC(=N)N)NC(=O)CC[C@H](NC(=O)CCCCCCCCCCCCCCCCCCC(=O)O)C(=O)O)C(=O)N[C@@H](CC(N)=O)C(=O)N[C@@H]([C@@H](C)O)C(=O)N[C@@H](C)C(=O)N[C@@H]([C@@H](C)O)C(=O)N1)[C@@H](C)O [Compound 105, [19CD]-isoGlu-RC()NTATC()ATQRLAEFLHRSSNNF-Gly(Me)-A-Ile(Me)-LSSTNVGSNT-Hyp-NH2] ({C20 diacid-γGlu}-RCNTATCATQRLAEFLHRSSNNF[Sar]A[NMeI]LSSTNVGSNT[Hyp]-NH2; disulfide 2-7)","Solubility, Acetate buffer pH 4",[1],SS (SS indicates solubility ≥ 1mg/ml)
same,"Solubility, Acetate buffer pH 5",[1],SS (SS indicates solubility ≥ 1mg/ml)
same,"Solubility, Histidine buffer pH 6",[1],SS (SS indicates solubility ≥ 1mg/ml)
same,"Solubility, Histidine buffer pH 7",[1],SS (SS indicates solubility ≥ 1mg/ml)
same,"Solubility, Phosphate buffer pH 6",[1],SS (SS indicates solubility ≥ 1mg/ml)
same,"Solubility, Phosphate buffer pH 7",[1],SS (SS indicates solubility ≥ 1mg/ml)
same,"Solubility, Phosphate buffer pH 7.5",[1],SS (SS indicates solubility ≥ 1mg/ml)
same,Body weight loss (%) after 96 hours,Sprague Dawley (SD) rats,7 ± 2.4%
same,EC50,[2],0.083 nM
"CC[C@H](C)[C@@H](C(=O)N[C@@H](CC(C)C)C(=O)N[C@@H](CO)C(=O)N[C@@H](CO)C(=O)N[C@H](C(=O)N[C@@H](CC(N)=O)C(=O)N[C@H](C(=O)NCC(=O)N[C@@H](CO)C(=O)N[C@@H](CC(N)=O)C(=O)N[C@H](C(=O)N1CC[C@H]1C(N)=O)[C@@H](C)O)C(C)C)[C@@H](C)O)N(C)C(=O)[C@H](C)NC(=O)CN(C)C(=O)[C@H](Cc1ccccc1)NC(=O)[C@H](CC(N)=O)NC(=O)[C@H](CC(N)=O)NC(=O)[C@H](CO)NC(=O)[C@H](CO)NC(=O)[C@H](CCCNC(=N)N)NC(=O)[C@H](Cc1c[nH]cn1)NC(=O)[C@H](CC(C)C)NC(=O)[C@H](Cc1ccccc1)NC(=O)[C@H](CCC(=O)O)NC(=O)[C@H](C)NC(=O)[C@H](CC(C)C)NC(=O)[C@H](CCCNC(=N)N)NC(=O)[C@H](CCC(N)=O)NC(=O)[C@@H](NC(=O)[C@H](C)NC(=O)[C@@H]1CSSC[C@H](NC(=O)[C@H](CCCNC(=N)N)NC(=O)CC[C@H](NC(=O)CCCCCCCCCCCCCCCCCCC(=O)O)C(=O)O)C(=O)N[C@@H](CC(N)=O)C(=O)N[C@@H]([C@@H](C)O)C(=O)N[C@@H](C)C(=O)N[C@@H]([C@@H](C)O)C(=O)N1)[C@@H](C)O [Compound 107, [19CD]-isoGlu-RC()NTATC()ATQRLAEFLHRSSNNF-Gly(Me)-A-Ile(Me)-LSSTNVGSNT-Aze-NH2] ({C20 diacid-γGlu}-RCNTATCATQRLAEFLHRSSNNF[Sar]A[NMeI]LSSTNVGSNT[Aze]-NH2; disulfide 2-7)","Solubility, Acetate buffer pH 4",[1],SS (SS indicates solubility ≥ 1mg/ml)
same,"Solubility, Acetate buffer pH 5",[1],SS (SS indicates solubility ≥ 1mg/ml)
same,"Solubility, Histidine buffer pH 6",[1],SS (SS indicates solubility ≥ 1mg/ml)
same,"Solubility, Histidine buffer pH 7",[1],SS (SS indicates solubility ≥ 1mg/ml)
same,"Solubility, Phosphate buffer pH 6",[1],SS (SS indicates solubility ≥ 1mg/ml)
same,"Solubility, Phosphate buffer pH 7",[1],SS (SS indicates solubility ≥ 1mg/ml)
same,"Solubility, Phosphate buffer pH 7.5",[1],SS (SS indicates solubility ≥ 1mg/ml)
same,Food intake inhibition (%) after 48 hours,Sprague Dawley (SD) rats,83%
same,Body weight loss (%) after 96 hours,Sprague Dawley (SD) rats,6 ± 1.5%
same,EC50,[2],0.18 nM
"CC[C@H](C)[C@@H](C(=O)N[C@@H](CC(C)C)C(=O)N[C@@H](CO)C(=O)N[C@@H](CO)C(=O)N[C@H](C(=O)N[C@@H](CC(N)=O)C(=O)N[C@H](C(=O)NCC(=O)N[C@@H](CO)C(=O)N[C@@H](CC(N)=O)C(=O)N[C@H](C(=O)N1C[C@H](N)C[C@H]1C(N)=O)[C@@H](C)O)C(C)C)[C@@H](C)O)N(C)C(=O)[C@H](C)NC(=O)CN(C)C(=O)[C@H](Cc1ccccc1)NC(=O)[C@H](CC(N)=O)NC(=O)[C@H](CC(N)=O)NC(=O)[C@H](CO)NC(=O)[C@H](CO)NC(=O)[C@H](CCCNC(=N)N)NC(=O)[C@H](Cc1c[nH]cn1)NC(=O)[C@H](CC(C)C)NC(=O)[C@H](Cc1ccccc1)NC(=O)[C@H](CCC(=O)O)NC(=O)[C@H](C)NC(=O)[C@H](CC(C)C)NC(=O)[C@H](CCCNC(=N)N)NC(=O)[C@H](CCC(N)=O)NC(=O)[C@@H](NC(=O)[C@H](C)NC(=O)[C@@H]1CSSC[C@H](NC(=O)[C@H](CCCNC(=N)N)NC(=O)CC[C@H](NC(=O)CCCCCCCCCCCCCCCCCCC(=O)O)C(=O)O)C(=O)N[C@@H](CC(N)=O)C(=O)N[C@@H]([C@@H](C)O)C(=O)N[C@@H](C)C(=O)N[C@@H]([C@@H](C)O)C(=O)N1)[C@@H](C)O [Compound 110, [19CD]-isoGlu-RC()NTATC()ATQRLAEFLHRSSNNF-Gly(Me)-A-Ile(Me)-LSSTNVGSNT-Apr-NH2] ({C20 diacid-γGlu}-RCNTATCATQRLAEFLHRSSNNF[Sar]A[NMeI]LSSTNVGSNT[Pro(4R-NH2)]-NH2; disulfide 2-7)","Solubility, Acetate buffer pH 4",[1],SS (SS indicates solubility ≥ 1mg/ml)
same,"Solubility, Acetate buffer pH 5",[1],SS (SS indicates solubility ≥ 1mg/ml)
same,"Solubility, Histidine buffer pH 6",[1],SS (SS indicates solubility ≥ 1mg/ml)
same,"Solubility, Histidine buffer pH 7",[1],SS (SS indicates solubility ≥ 1mg/ml)
same,"Solubility, Phosphate buffer pH 6",[1],II (II indicates solubility ≤ 1 mg/ml)
same,"Solubility, Phosphate buffer pH 7",[1],SS (SS indicates solubility ≥ 1mg/ml)
same,"Solubility, Phosphate buffer pH 7.5",[1],SS (SS indicates solubility ≥ 1mg/ml)
same,Food intake inhibition (%) after 48 hours,Sprague Dawley (SD) rats,98%
same,Body weight loss (%) after 96 hours,Sprague Dawley (SD) rats,11 ± 1.1%
same,EC50,[2],0.16 nM
"CC[C@H](C)[C@@H](C(=O)N[C@@H](CC(C)C)C(=O)N[C@@H](CO)C(=O)N[C@@H](CO)C(=O)N[C@H](C(=O)N[C@@H](CCC(=O)O)C(=O)N[C@H](C(=O)NCC(=O)N[C@@H](CO)C(=O)N[C@@H](CCC(=O)O)C(=O)N[C@H](C(=O)N1CCC[C@H]1C(N)=O)[C@@H](C)O)C(C)C)[C@@H](C)O)N(C)C(=O)[C@H](C)NC(=O)CN(C)C(=O)[C@H](Cc1ccccc1)NC(=O)[C@H](CO)NC(=O)[C@H](CO)NC(=O)[C@H](CO)NC(=O)[C@H](CO)NC(=O)[C@H](CCCNC(=N)N)NC(=O)[C@H](Cc1c[nH]cn1)NC(=O)[C@H](CC(C)C)NC(=O)[C@H](Cc1ccccc1)NC(=O)[C@H](CCC(=O)O)NC(=O)[C@H](C)NC(=O)[C@H](CC(C)C)NC(=O)[C@H](CCCNC(=N)N)NC(=O)[C@H](CC(=O)O)NC(=O)[C@@H](NC(=O)[C@H](C)NC(=O)[C@@H]1CSSC[C@H](NC(=O)[C@H](CCCNC(=N)N)NC(=O)CC[C@H](NC(=O)CCCCCCCCCCCCCCCCCCC(=O)O)C(=O)O)C(=O)N[C@@H](CC(N)=O)C(=O)N[C@@H]([C@@H](C)O)C(=O)N[C@@H](C)C(=O)N[C@@H]([C@@H](C)O)C(=O)N1)[C@@H](C)O [Compound 120, [19CD]-isoGlu-RC()NTATC()ATDRLAEFLHRSSSSF-Gly(Me)-A-Ile(Me)-LSSTEVGSETP-NH2] ({C20 diacid-γGlu}-RCNTATCATDRLAEFLHRSSSSF[Sar]A[NMeI]LSSTEVGSETP-NH2; disulfide 2-7)","Solubility, Acetate buffer pH 4",[1],SS (SS indicates solubility ≥ 1mg/ml)
same,"Solubility, Acetate buffer pH 5",[1],SS (SS indicates solubility ≥ 1mg/ml)
same,"Solubility, Histidine buffer pH 6",[1],SS (SS indicates solubility ≥ 1mg/ml)
same,"Solubility, Histidine buffer pH 7",[1],SS (SS indicates solubility ≥ 1mg/ml)
same,"Solubility, Phosphate buffer pH 6",[1],SS (SS indicates solubility ≥ 1mg/ml)
same,"Solubility, Phosphate buffer pH 7",[1],SS (SS indicates solubility ≥ 1mg/ml)
same,"Solubility, Phosphate buffer pH 7.5",[1],SS (SS indicates solubility ≥ 1mg/ml)
same,Body weight loss (%) after 96 hours,Sprague Dawley (SD) rats,12 ± 1.8%
same,EC50,"[2]; cAMP induction in COS7 cells expressing hCTR2, average of a minimum of 3 determinations, read-out: hCTR2 EC50",0.043 nM
